For one data set, the target named is KRAS. To be noted: ASO.
A further data set concerns the target HBV. To be noted: ASO, HepG2, 0.07 µM.

Several values for one entry are separate records, joined by “and”; a condition that tells them apart may be missing. Identical values can stand only once. After the bases stand the sugars from the 5' end (letter, count) and the backbone: PS all phosphorothioate, else s phosphorothioate and o phosphodiester by linkage. HELM strings list units from the 5' end as sugar, base in round brackets, then linkage (d deoxyribose, r ribose, m 2'-O-methyl, p phosphodiester). Methylation of C is not given here. [moe] = 2'-O-(2-methoxyethyl) (MOE); [cEt] = constrained ethyl (cEt); [sp] = phosphorothioate linkage; e = 2'-O-(2-methoxyethyl) (MOE); k = constrained ethyl (cEt); d = 2'-deoxy (DNA)

Regarding AAAAATTAATGTCTTG (sugars k3 d10 k3, PS), in the data set with KRAS (A431, 2 µM), the target mRNA inhibition was 20%.
In the case of AAAAGCTATTAGGAGT (sugars k3 d10 k3, PS), in the data set with KRAS (A431, 2 µM), the target mRNA inhibition was 25%.
Turning to AAATTAGTGATTAGGT (sugars k3 d10 k3, PS), the target mRNA inhibition in the data set with KRAS (A431, 2 µM) worked out at 5%.
Same read-out and setting: under AACCATTCAAAGTTCA (sugars k3 d10 k3, PS) stands 35%; under AACGAGAATGGATATT (sugars k3 d10 k3, PS), 4%.
For the substance AAGGTAAAAGCTAACA (sugars k3 d10 k3, PS), the target mRNA inhibition with KRAS (A431, 2 µM) worked out at 21%.
On to AAGTGTTTATGCAATG (sugars k3 d10 k3, PS), for which the target mRNA inhibition with KRAS (A431, 2 µM) was determined as 45%.
As for AATAGTTTCCATTGCC (sugars k3 d10 k3, PS), in the data set with KRAS (A431, 2 µM), the target mRNA inhibition was found to be 56%.
On the same count and under the same terms, under AATGTCACAAGCAGAA (sugars k3 d10 k3, PS) stands 49%; under AATTAATGTCTTGGCA (sugars k3 d10 k3, PS), 12%.
ACAGATTGTGCTGAGC (sugars k3 d10 k3, PS) registered a target mRNA inhibition with KRAS (A431, 2 µM) of 46%.
Same read-out and setting: under “ACCAGTGTTAAGAGAA (sugars kkddddddddkekekk, PS)” stands 52%.
Take “ACCATTCAAAGTTCAC (sugars k3 d9 k3 e1, PS)”: the target mRNA inhibition with KRAS (A431, 2 µM) was 42%.
With ACGAGAATGGATATTC (sugars k3 d10 k3, PS), the target mRNA inhibition with KRAS (A431, 2 µM) turned out to be 29%.
ACTAATAGCAGTGGAA (sugars k3 d10 k3, PS) yielded a target mRNA inhibition with KRAS (A431, 2 µM) of 27%.
As for AGATATCCACAGCAGC (sugars k3 d10 k3, PS), in the data set with KRAS (A431, 2 µM), the target mRNA inhibition came out at 58%.
The substance AGATGGTGTAACATAG (sugars k3 d10 k3, PS) registered a target mRNA inhibition in the data set with KRAS (A431, 2 µM) of 39%.
In the data set with KRAS (A431, 2 µM), “AGATTGTGCTGAGCTT (sugars k3 d9 k3 e1, PS)” returned a target mRNA inhibition of 42%.
In the case of “AGATTGTGCTGAGCTT (sugars kddddddddddkekek, PS)”, the target mRNA inhibition in the data set with KRAS (A431, 2 µM) is 7%.
In turn, AGCTTGATCGAAGAGT (sugars k3 d10 k3, PS) yielded a target mRNA inhibition in the data set with KRAS (A431, 5 µM) of 50%.
Take AGGAGTCTTTATAGTA (sugars k3 d10 k3, PS): the target mRNA inhibition in the data set with KRAS (A431, 0.185 µM) is 14%; with KRAS (A431, 0.556 µM), 42%; in the data set with KRAS (A431, 1.667 µM), 58%; with KRAS (A431, 2 µM), 66% and 65% and 57%; with KRAS (A431, 5 µM) it was 77%.
As to “AGGAGTCTTTATAGTA (sugars kkddddddddkekekk, PS)”, the target mRNA inhibition in the data set with KRAS (A431, 2 µM) stood at 21%.
As to “AGTGATTAGGTCAAAT (sugars kkddddddddkekekk, PS)”, in the data set with KRAS (A431, 2 µM), the target mRNA inhibition amounted to 46%.
Substance “AGTGTGACTCAGTTAA (sugars k3 d9 k3 e1, PS)” displayed a target mRNA inhibition with KRAS (A431, 2 µM) of 15%.
Turning to “AGTGTGACTCAGTTAA (sugars kkddddddddddkeke, PS)”, the target mRNA inhibition with KRAS (A431, 2 µM) was found to be 41%.
Still for that read-out and setting: under “AGTGTGACTCAGTTAA (sugars kkdddddddddkdkdk, PS)” stands 38%; under AGTTTCACATAGCAAT (sugars k3 d10 k3, PS), 38%; under ATAATAATCCCCATTT (sugars k3 d10 k3, PS), 4%.
ATATCCACAGCAGCAG (sugars k3 d10 k3, PS) showed a target mRNA inhibition with KRAS (A431, 2 µM) of 39%.
ATCCATTTATGTGACT (sugars k3 d10 k3, PS) had a target mRNA inhibition with KRAS (A431, 2 µM) of 38%.
As for ATCTTTTAATGTCACA (sugars k3 d10 k3, PS), the target mRNA inhibition in the data set with KRAS (A431, 0.037 µM) is 74%; in the data set with KRAS (A431, 2 µM), 58%; with KRAS (A431, 5 µM), 97% and 96%; with KRAS (NCI-H460, 0.037 µM), 65.3%.
In the case of “ATGCTGTGAAACTCTC (sugars kddddddddddkekek, PS)”, the target mRNA inhibition with KRAS (A431, 2 µM) was 18%.
In the data set with KRAS (A431, 2 µM), “ATGCTGTGAAACTCTC (sugars kkddddddddddkeke, PS)” yielded a target mRNA inhibition of 35%.
On the same count and under the same terms, for “ATGCTGTGAAACTCTC (sugars kkddddddddkekekk, PS)” the value was 25%; for “ATGCTGTGAAACTCTC (sugars kkkdddddddddkeke, PS)”, 2%; for “ATGGTGTAACATAGGT (sugars kdddddddddkekeke, PS)”, 39%.
On to “ATGGTGTAACATAGGT (sugars kkddddddddddkeke, PS)”, for which the target mRNA inhibition with KRAS (A431, 0.185 µM) was determined as 22%; with KRAS (A431, 0.556 µM), 39%; with KRAS (A431, 1.667 µM) it was 60%; with KRAS (A431, 2 µM), 65%; with KRAS (A431, 5 µM) it was 69%.
For “ATGGTGTAACATAGGT (sugars kkdddddddddkekek, PS)”, the target mRNA inhibition in the data set with KRAS (A431, 2 µM) amounted to 53%; with KRAS (NCI-H460, 0.037 µM), 52.7%.
In the data set with KRAS (A431, 2 µM), “ATGGTGTAACATAGGT (sugars kkkdddddddddkeke, PS)” yielded a target mRNA inhibition of 43%.
Turning to “ATGGTGTAACATAGGT (sugars kkkddddddddkdkdk, PS)”, the target mRNA inhibition with KRAS (A431, 2 µM) was 36%.
In turn, ATTACTTTTTGACAAA (sugars k3 d10 k3, PS) yielded a target mRNA inhibition in the data set with KRAS (A431, 2 µM) of 0%.
As for ATTAGTGATTAGGTCA (sugars k3 d10 k3, PS), the target mRNA inhibition is 2% and 25% with KRAS (A431, 0.185 µM); 37% with KRAS (A431, 0.556 µM); 47% in the data set with KRAS (A431, 1.667 µM); 55% in the data set with KRAS (A431, 2 µM); 71% with KRAS (A431, 5 µM).
In the data set with KRAS (A431, 2 µM), “ATTGTGCTGAGCTTGA (sugars kdddddddddkekeke, PS)” had a target mRNA inhibition of 18%.
As to CAAGATGACACTAATA (sugars k3 d10 k3, PS), the target mRNA inhibition with KRAS (A431, 2 µM) was 18%.
Consider CACTTCATTGTTTAAA (sugars k3 d10 k3, PS), for which the target mRNA inhibition with KRAS (A431, 2 µM) was 12%.
As to CAGACTTGAAAAGTGT (sugars k3 d10 k3, PS), the target mRNA inhibition with KRAS (A431, 2 µM) was 24%.
In the data set with KRAS (A431, 2 µM), “CAGTGTGACTCAGTTA (sugars kkddddddddddkeke, PS)” registered a target mRNA inhibition of 51%.
As for “CAGTGTTAAGAGAACT (sugars kdddddddddkekeke, PS)”, in the data set with KRAS (A431, 2 µM), the target mRNA inhibition was 40%.
As for “RNA1{[moe](T)[sp].[moe](G)[sp].[moe](A)[sp].[moe](A)[sp].d(G)[sp].d(C)[sp].d(G)[sp].d(A)[sp].d(A)[sp].d(G)[sp].d(T)[sp].d(G)[sp].d(C)[sp].[moe](A)[sp].[moe](C)[sp].[moe](A)[sp].[moe](C)}$$$$V2.0”, the target mRNA inhibition with HBV was 62% and 51%.
For “RNA1{[moe](T)[sp].[moe](G)[sp].[moe](A)[sp].[moe](A)[sp].d(G)[sp].d(C)[sp].d(G)[sp].d(A)[sp].d(A)[sp].d(G)[sp].d(T)[sp].d(G)[sp].d(C)[sp].[moe](A)[sp].[moe](C)[sp].[moe](A)}$$$$V2.0”, the target mRNA inhibition with HBV was 43% and 52%.
“RNA1{[moe](T)[sp].[moe](G)[sp].[moe](A)[sp].[moe](G)[sp].[moe](G)[sp].d(C)[sp].d(A)[sp].d(T)[sp].d(A)[sp].d(G)[sp].d(C)[sp].d(A)[sp].d(G)[sp].d(C)[sp].[moe](A)[sp].[moe](G)}$$$$V2.0”: in the data set with HBV, the target mRNA inhibition was 48% and 51%.
“RNA1{[moe](T)[sp].[moe](G)[sp].[moe](A)[sp].[moe](G)[sp].d(G)[sp].d(C)[sp].d(A)[sp].d(T)[sp].d(A)[sp].d(G)[sp].d(C)[sp].d(A)[sp].d(G)[sp].[moe](C)[sp].[moe](A)[sp].[moe](G)[sp].[moe](G)}$$$$V2.0”: in the data set with HBV, the target mRNA inhibition was 38% and 40%.
With “RNA1{[moe](T)[sp].[moe](G)[sp].[moe](A)[sp].[moe](G)[sp].d(G)[sp].d(C)[sp].d(A)[sp].d(T)[sp].d(A)[sp].d(G)[sp].d(C)[sp].d(A)[sp].d(G)[sp].[moe](C)[sp].[moe](A)[sp].[moe](G)}$$$$V2.0”, the target mRNA inhibition with HBV is 56% and 53%.
Turning to “RNA1{[moe](T)[sp].[moe](G)[sp].[moe](A)[sp].d(G)[sp].d(G)[sp].d(C)[sp].d(A)[sp].d(T)[sp].d(A)[sp].d(G)[sp].d(C)[sp].d(A)[sp].d(G)[sp].[cEt](C)[sp].[cEt](A)[sp].[cEt](G)}$$$$V2.0”, in the data set with HBV, the target mRNA inhibition was 59% and 61%.
For “RNA1{[moe](T)[sp].[moe](G)[sp].[moe](C)[sp].[moe](A)[sp].[moe](G)[sp].d(A)[sp].d(G)[sp].d(G)[sp].d(T)[sp].d(G)[sp].d(A)[sp].d(A)[sp].d(G)[sp].d(C)[sp].[moe](G)[sp].[moe](A)[sp].[moe](A)}$$$$V2.0”, the target mRNA inhibition with HBV is 55% and 56%.
For the substance “RNA1{[moe](T)[sp].[moe](G)[sp].[moe](C)[sp].[moe](A)[sp].d(G)[sp].d(A)[sp].d(G)[sp].d(G)[sp].d(T)[sp].d(G)[sp].d(A)[sp].d(A)[sp].d(G)[sp].[moe](C)[sp].[moe](G)[sp].[moe](A)[sp].[moe](A)}$$$$V2.0”, in the data set with HBV, the target mRNA inhibition is 68% and 58%.
Turning to “RNA1{[moe](T)[sp].[moe](G)[sp].[moe](C)[sp].[moe](A)[sp].d(G)[sp].d(A)[sp].d(G)[sp].d(G)[sp].d(T)[sp].d(G)[sp].d(A)[sp].d(A)[sp].d(G)[sp].[moe](C)[sp].[moe](G)[sp].[moe](A)}$$$$V2.0”, in the data set with HBV, the target mRNA inhibition is 60% and 68%.
In the case of “RNA1{[moe](T)[sp].[moe](G)[sp].d(A)[sp].d(G)[sp].d(G)[sp].d(C)[sp].d(A)[sp].d(T)[sp].d(A)[sp].d(G)[sp].d(C)[sp].[moe](A)[sp].[moe](G)[sp].[moe](C)[sp].[moe](A)[sp].[moe](G)[sp].[moe](G)}$$$$V2.0”, in the data set with HBV, the target mRNA inhibition was 73% and 72%.
For “RNA1{[moe](T)[sp].[moe](T)[sp].[moe](C)[sp].[moe](C)[sp].[moe](G)[sp].d(C)[sp].d(A)[sp].d(G)[sp].d(T)[sp].d(A)[sp].d(T)[sp].d(G)[sp].d(G)[sp].d(A)[sp].[moe](T)[sp].[moe](C)}$$$$V2.0”, the target mRNA inhibition with HBV is 59% and 58%.
For “RNA1{[moe](T)[sp].[moe](T)[sp].[moe](T)[sp].[moe](A)[sp].[moe](T)[sp].d(G)[sp].d(C)[sp].d(C)[sp].d(T)[sp].d(A)[sp].d(C)[sp].d(A)[sp].d(G)[sp].d(C)[sp].[moe](C)[sp].[moe](T)}$$$$V2.0”, in the data set with HBV, the target mRNA inhibition is 53% and 37%.
On to “RNA1{[moe](T)[sp].[moe](T)[sp].[moe](T)[sp].d(A)[sp].d(T)[sp].d(G)[sp].d(C)[sp].d(C)[sp].d(T)[sp].d(A)[sp].d(C)[sp].d(A)[sp].[moe](G)[sp].[moe](C)[sp].[moe](C)[sp].[moe](T)}$$$$V2.0”, for which the target mRNA inhibition in the data set with HBV is 51% and 38%.
